# Measurements published in patent US20070149485A1, “SELECTED DOSAGE FOR THE TREATMENT OF CARDIOVASCULAR AND RELATED PATHOLOGIES” (Medicure International, Inc., priority 2005, published 2007).
# Test system: high-risk patients undergoing CABG surgery with cardiopulmonary bypass
# Assay: Oral P5P in high-risk patients undergoing CABG surgery (randomized, double-blind, placebo-controlled): myocardial infarction and combined incidents to POD 30
# Assay type: in vivo, human
# Settings: for Frequencies of myocardial infarction, cerebral infarction, or death, at POD 30: Myocardial infarction, cerebral infarction or death / Frequencies of myocardial infarction, cerebral infarction, or death, at POD 30: No myocardial infarction, cerebral infarction or death / Frequencies of myocardial infarction at POD 30: Myocardial Infarction / Frequencies of myocardial infarction at POD 30: No myocardial infarction: number of patients (% of group); for reducing post-CABG morbidity and mortality: CK-MB 100 ng/ml (post-hoc) as indicator; for reducing instances of myocardial infarction: vs placebo
# Excerpt: A randomized, double-blind placebo-controlled, dose-ranging, parallel-arrn multi-center study was undertaken, on high-risk patients undergoing CABG surgery with cardiopulmonary bypass.
# Patients were identified as “high risk” if they had two or more of the following risk factors: • Age greater than 65 years; • Current smoker;
# Approximately 900 high risk pre-CABG patients in 42 different treatment centers in North America were screened and randomized to three groups of approximately 300 patients each, prior to their bypass surgery, as follows. Patients were either placed in a control group (placebo), treated orally with 250 mg/day of P5P (250 mg/day), or treated orally with 750 mg/day of P5P (750 mg/day).
# The first dose of study medication was administered at 3-10 hours prior to CABG surgery. In the event of surgery delay or rescheduling, a second pre-operative dose of P5P was administered so that all patients received study medication 3-10 hours before surgery. Treatment continued for 30 days after surgery (post operative day (POD) 30). Patients received follow-up evaluations up to and including postoperative day (POD) 4, on POD 30 and on POD 90.
# Patients were measured for combined incidence of cardiovascular death, nonfatal myocardial infarction (MI), and nonfatal cerebral infarction up to and including post-operative day 30 (POD 30). Patients were also measured for nonfatal myocardial infarction alone. All deaths without an identifiable non-cardiovascular cause were considered of cardiovascular origin.
# Cerebral infarction (stroke) was defined clinically as any new sudden onset focal neurological deficit lasting at least 24 hours as assessed by a neurologist and after neuroimaging (computed tomography [CT] brain scan or magnetic resonance imaging [MRI]) had excluded an intracerebral hemorrhage. All patients suspected of having a stroke or transient ischemic attack (TIA) received a neurological examination (conducted by a neurologist or internist with expertise in cerebral vascular disease) within 24 hours of onset of symptoms. All patients suspected of having a stroke were submitted to cerebral imaging.
# When determining whether a patient had myocardial infarction, the following definitions were used: • A peak creatine kinase—myocardial band (CK-MB) above a certain threshold. Since different experts and different prior art clinical trials used different cut-offs for this threshold, three different thresholds were used to determine whether a patient had myocardial infarction—a post-hoc cut off threshold of 100 ng/ml (a peak CK-MB of 100 ng/ml or greater on days up to and including POD 4), a post-hoc cut off threshold of 70 ng/ml, and a predefined cut off threshold of 50 ng/ml was used; • A new q-wave evidence of myocardial infarction along with CK-MB of 35 ng/ml or above on days up to and including POD 4; • A peak CK-MB of 5× ULN (25 ng/ml) or above occurring after POD 4; • A new q-wave evidence of myocardial infarction that was not present at POD 4; or • A q-wave or non-q-wave myocardial infarction as identified by the investigator and confirmed by the Clinical Endpoint Committee. A. Myocardial Infarction Rates CK-MB Cut-off of 100 ng/ml
# [1] = oral 250 mg/day, CK-MB cut-off 50 ng/ml
# [2] = oral 250 mg/day, CK-MB cut-off 50 ng/ml (predefined)
# [3] = oral 250 mg/day, CK-MB cut-off 70 ng/ml
# [4] = oral 250 mg/day, CK-MB cut-off 70 ng/ml (post-hoc)
# [5] = oral 250 mg/day, CK-MB cut-off 100 ng/ml
# [6] = oral 250 mg/day, CK-MB cut-off 100 ng/ml (post-hoc)
# [7] = oral 750 mg/day, CK-MB cut-off 50 ng/ml
# [8] = oral 750 mg/day, CK-MB cut-off 50 ng/ml (predefined)
# [9] = oral 750 mg/day, CK-MB cut-off 70 ng/ml
# [10] = oral 750 mg/day, CK-MB cut-off 70 ng/ml (post-hoc)
# [11] = oral 750 mg/day, CK-MB cut-off 100 ng/ml
# [12] = oral 750 mg/day, CK-MB cut-off 100 ng/ml (post-hoc)
structure (smiles),measurement,setting,value
"Cc1ncc(COP(=O)(O)O)c(C=O)c1O [P5P, 3-hydroxy-2-methyl-5-[(phosphonooxy)methyl]-4-pyridine-carboxaldehyde]","Frequencies of myocardial infarction, cerebral infarction, or death, at POD 30: Myocardial infarction, cerebral infarction or death",[1],65 (21.6%)
same,"Frequencies of myocardial infarction, cerebral infarction, or death, at POD 30: No myocardial infarction, cerebral infarction or death",[1],236 (78.4%)
same,Frequencies of myocardial infarction at POD 30: Myocardial Infarction,[2],59 (19.6%)
same,Frequencies of myocardial infarction at POD 30: No myocardial infarction,[2],242 (80.4%)
same,"Frequencies of myocardial infarction, cerebral infarction, or death, at POD 30: Myocardial infarction, cerebral infarction or death",[3],41 (13.6%)
same,"Frequencies of myocardial infarction, cerebral infarction, or death, at POD 30: No myocardial infarction, cerebral infarction or death",[3],260 (86.4%)
same,Frequencies of myocardial infarction at POD 30: Myocardial Infarction,[4],34 (11.3%)
same,Frequencies of myocardial infarction at POD 30: No myocardial infarction,[4],267 (88.7%)
same,"Frequencies of myocardial infarction, cerebral infarction, or death, at POD 30: Myocardial infarction, cerebral infarction or death",[5],31 (10.3%)
same,"Frequencies of myocardial infarction, cerebral infarction, or death, at POD 30: No myocardial infarction, cerebral infarction or death",[5],270 (89.7%)
same,Frequencies of myocardial infarction at POD 30: Myocardial Infarction,[6],23 (7.6%)
same,Frequencies of myocardial infarction at POD 30: No myocardial infarction,[6],278 (92.4%)
same,"Frequencies of myocardial infarction, cerebral infarction, or death, at POD 30: Myocardial infarction, cerebral infarction or death",[7],77 (25.6%)
same,"Frequencies of myocardial infarction, cerebral infarction, or death, at POD 30: No myocardial infarction, cerebral infarction or death",[7],224 (74.4%)
same,Frequencies of myocardial infarction at POD 30: Myocardial Infarction,[8],71 (23.6%)
same,Frequencies of myocardial infarction at POD 30: No myocardial infarction,[8],230 (76.4%)
same,"Frequencies of myocardial infarction, cerebral infarction, or death, at POD 30: Myocardial infarction, cerebral infarction or death",[9],47 (15.6%)
same,"Frequencies of myocardial infarction, cerebral infarction, or death, at POD 30: No myocardial infarction, cerebral infarction or death",[9],254 (84.4%)
same,Frequencies of myocardial infarction at POD 30: Myocardial Infarction,[10],38 (12.6%)
same,Frequencies of myocardial infarction at POD 30: No myocardial infarction,[10],263 (87.4%)
same,"Frequencies of myocardial infarction, cerebral infarction, or death, at POD 30: Myocardial infarction, cerebral infarction or death",[11],34 (11.3%)
same,"Frequencies of myocardial infarction, cerebral infarction, or death, at POD 30: No myocardial infarction, cerebral infarction or death",[11],267 (88.7%)
same,Frequencies of myocardial infarction at POD 30: Myocardial Infarction,[12],23 (7.6%)
same,Frequencies of myocardial infarction at POD 30: No myocardial infarction,[12],278 (92.4%)
same,reducing post-CABG morbidity and mortality,oral 250 mg/day,effective
same,"reducing total incidents (myocardial infarction, cerebral infarction, or death)",[1],highly effective
same,reducing instances of myocardial infarction,[1],highly effective
same,"reducing total incidents (myocardial infarction, cerebral infarction, or death)","oral 250 mg/day, CK-MB cut-off 70 ng/ml, better than 750 mg/day",highly effective
same,reducing instances of myocardial infarction,[3],highly effective
same,"reducing total incidents (myocardial infarction, cerebral infarction, or death)","oral 250 mg/day, CK-MB cut-off 100 ng/ml, better than 750 mg/day",highly effective
same,reducing instances of myocardial infarction,[5],highly effective
same,reducing post-CABG morbidity and mortality,oral 750 mg/day,effective
same,"reducing total incidents (myocardial infarction, cerebral infarction, or death)",[7],did not reduce
same,reducing instances of myocardial infarction,[7],not effective
same,"reducing total incidents (myocardial infarction, cerebral infarction, or death)",[9],highly effective
same,reducing instances of myocardial infarction,"oral 750 mg/day, CK-MB cut-off 70 ng/ml, not as effective as 250 mg/day",effective
same,"reducing total incidents (myocardial infarction, cerebral infarction, or death)",[11],highly effective
same,reducing instances of myocardial infarction,[11],highly effective
same,"effectiveness at reducing post-CABG morbidity and mortality, 250 mg/day compared with 750 mg/day","oral, CK-MB level greater than 50 ng/ml (pre-defined) or 70 ng/ml (post-hoc) as indicator",higher effectiveness
